This data set has as its system Salmonella Typhimurium TA1535. The procedure: Before the test, Salmonella Typhimurium (S. Typhimurium) TA97a, TA98, TA100, TA102, TA1535 and Escherichia coli WP2uvrA pKM101 (pKM101) were first checked for their genetic integrity, including biotin dependence, rfa marker (crystal violet), biotin, histidine dependence and presence of the plasmid pKM101 (ampicillin resistance) or pAQ1 (tetracycline resistance). […] The maximum concentration of EDT was also screened using a preliminary experiment.
DMSO (0.1 mL) was directly incorporated into 1.9 mL melted top agar as the vehicle control. […] Each strain (0.1 mL, 6–7 log10 CFU/mL) was added into 2 mL of top agar in which comprised 0.5 mL S9 (10%), serial concentrations of EDT (2000, 400, 80, 16 and 3.2 μg/plate), DMSO or control chemicals for testing with the S9. For testing without S9, 0.5 mL phosphate buffer saline (PBS, pH 7.4) replaced the S9 mix. Then, the obtained top agar was melted, poured onto the surface of […] and swirled to distribute the top agar to all surfaces of medium, followed by incubation at 37 °C for 48 h. The resultant colonies were counted manually as the number of revertant colonies per plate. The experiments were performed in triplicate and the results were expressed as the average ± SD.

Each structure is given as a SMILES string. Where two headings read alike, the source gives them in different places.

With `C=CC1(C)CC(OC(=O)CSc2nc(C)c(C(=O)OCC)c(C)n2)C2(C)C(C)CCC3(CCC(=O)C32)C(C)C1O` (stereo not shown) [EDT, 14-O-[(5-ethoxycarbonyl-4,6-dimethylpyrimidine-2-yl)thioacetyl] mutilin], the “number of revertant colonies per plate” value is 21.00 ± 4.00 (TA1535, 3.2 μg/plate, +S9); 19.67 ± 1.33 (TA1535, 3.2 μg/plate, −S9); 27.00 ± 2.00 (TA1535, 16 μg/plate, +S9); 23.33 ± 1.67 (TA1535, 16 μg/plate, −S9); 25.00 ± 4.00 (TA1535, 80 μg/plate, +S9); 23.33 ± 2.67 (TA1535, 80 μg/plate, −S9). Moreover, the “number of revertant colonies per plate” value is, setting by setting: (TA1535, 400 μg/plate, +S9) 26.00 ± 3.00; (TA1535, 400 μg/plate, −S9) 23.33 ± 2.67; (TA1535, 2000 μg/plate, +S9) 19.33 ± 3.67; (TA1535, 2000 μg/plate, −S9) 17.67 ± 2.33.
